{"source": "patent US4273777A", "about": "“Methods of treating mammals suffering from inflammation and pain” (Laboratorios Bago S.A., priority 1980, dated 1981)", "key": {"[1]": {"experiment": "Influence on the gastro-intestinal tract (ulceration of the gastric epithelium, pylorus ligated, Shay et al.)", "assay_type": "in vivo, rat (Sprague Dawley)", "description": "Influence on the gastro-intestinal tract\nTen male rats of Sprague Dawley strain, weighing 200-300 g were used for each compound tested. According to the method of Shay et al. (Shay, H., Komapov. S. A., Feb. S. S., Meranir, D., Gruenstein, M., Siplet, H. Gastroenterology 5, 43, 1945), under anesthesia, the pylorus was ligated and 4 hours later test compounds were orally administered. The animal was sacrificed 1 hour after compound administration. The stomach was removed and examined for macroscopic damage. The ulceration of the gastric epithelium was evaluated by the following evaluation: 0=no hemorrhage sites; 1=some isolated hemorrhagic sites; 2=redness of the gastric epithelium; 3=1 to 5 small ulcers with a diameter smaller than 3 mm; 4=many small ulcers; 5=ulcers--greater than 3 mm; 6=perforated ulcer."}, "[2]": {"experiment": "Randall-Selitto test (analgesic activity, carrageenin inflamed foot)", "assay_type": "in vivo, mouse (Rockland)", "settings": "oral, 30 minutes before carrageenin; control (water) 0; doses as for tail pressure (pivaloyloxymethyl TPA ester 166 mg/kg, 66 mg/kg)", "description": "Randall-Selitto's method: Ten male mice of Rockland strain weighing 25 g were used for each compound tested. 0.1 ml of 1% carrageenin saline suspension was injected into the subplantar region of the right foot. The test compounds were orally administered 30 minutes before the injection. At hourly intervals for 3 hours after the carrageenin injection, the pain threshold for the inflammed feet was measured determining the amount of pressure with an analgesy meter."}, "[3]": {"experiment": "Tail pressure test (analgesic activity)", "assay_type": "in vivo, mouse (Rockland)", "settings": "oral; control (water) 0; dose mg/kg: ASA 100, pivaloyloxymethyl TPA ester 166 and 66, CPA 50, TPA 47, phthalidyl CPA ester 72, pivaloyloxymethyl CPA ester 69, xylyl anthranylates 77 (phthalidyl)/74 (pivaloyloxymethyl), TAA 50, its phthalidyl ester 73.5, pivaloyloxymethyl ester 82", "description": "Tail pressure test: Ten male mice of Rockland strain weighing 20-25 g were used for each compound tested. The response threshold on applying pressure to the tail was determined with an analgesy meter at 15 and 60 minutes after oral administration of the test compound. The pressure at which a struggle was elicited was read."}, "[4]": {"experiment": "Carrageenin induced edema test (anti-inflammatory activity)", "parameters": "species or system rat (Sprague Dawley)", "settings": "rat, in vivo", "description": "Anti-inflammatory Activity (Carrageenin induced edema test)\nFifteen to twenty male rats of Sprague Dawley strain weighing 150-200 g, were employed for each compound tested. 0.1 ml of 1% carrageenin saline suspension was injected into the subplantar region of the right hind-paw. The test compounds were orally administered 30 minutes prior to the injection of carrageenin and the foot volume was determined 1, 3 and 5 hours after the injection of carrageenin. The percent swelling in the foot was obtained by comparing the volume before and after the injection of carrageenin, and the rate of inhibition in the treated animals was calculated."}, "[5]": {"settings": "oral, 1 hour after compound, score 0=no hemorrhage sites to 6=perforated ulcer, control 3.0, dose mg/kg: phenylbutazone 75, ASA 100, TPA 47, pivaloyloxymethyl TPA ester 66, CPA 150, phthalidyl CPA ester 216, pivaloyloxymethyl CPA ester 207, xylyl anthranylates 186/196, TAA 60, its esters 88/84.5"}, "[6]": {"settings": "versus control (distilled water) 3.0, oral"}}}
{"smiles": "CC(C)(C)C(=O)OCOC(=O)c1ccccc1Nc1cccc(C(F)(F)F)c1", "note": "[Pivaloyloxymethyl N-(3'-trifluorotolyl) anthranylate]", "values": [{"measurement": "Evaluation (ulceration of the gastric epithelium)", "setting": "[1]; [5]", "value": 3.6}, {"measurement": "Increase (of ulceration evaluation over control)", "setting": "[1]; [6]", "value": 0.6}]}
{"smiles": "CC(=O)Oc1ccccc1C(=O)O", "note": "[Acetylsalicylic acid (ASA), Acetylsalicylic acid, reference compound]", "values": [{"measurement": "Evaluation (ulceration of the gastric epithelium)", "setting": "[1]; rat, in vivo, po", "value": 4.1}, {"measurement": "Increase (of ulceration evaluation over control)", "setting": "[1]; rat, in vivo, po", "value": 1.1}]}
{"smiles": "O=C(O)c1ccccc1Nc1cccc(C(F)(F)F)c1", "note": "[N-(3'-trifluorotolyl)-anthranylic acid, reference compound]", "values": [{"measurement": "Evaluation (ulceration of the gastric epithelium)", "setting": "[1]; [5]", "value": 4.9}, {"measurement": "Increase (of ulceration evaluation over control)", "setting": "[1]; [6]", "value": 1.9}, {"measurement": "Relative strength, Randall-Selitto test", "setting": "[2]", "value": 5.3}, {"measurement": "Relative strength, Tail pressure test", "setting": "[3]", "value": 0.5}]}
{"smiles": "Cc1c(Cl)cccc1Nc1ncccc1C(=O)OCOC(=O)C(C)(C)C", "note": "[Pivaloyloxymethyl 2-(3'-chloro-2'-methylanilino)-pyridine-3-carboxylate]", "values": [{"measurement": "Evaluation (ulceration of the gastric epithelium)", "setting": "[1]; [5]", "value": 3.0}]}
{"smiles": "Cc1cccc(Nc2ccccc2C(=O)OCOC(=O)C(C)(C)C)c1C", "note": "[Pivaloyloxymethyl N-(2',3'-xylyl) anthranylate]", "values": [{"measurement": "Evaluation (ulceration of the gastric epithelium)", "setting": "[1]; [5]", "value": 3.4}, {"measurement": "Increase (of ulceration evaluation over control)", "setting": "[1]; [6]", "value": 0.4}]}
{"smiles": "Cc1cccc(Nc2ccccc2C(=O)OC2OC(=O)c3ccccc32)c1C", "note": "(stereo not shown) [Phthalidyl N-(2',3'-xylyl) anthranylate]", "values": [{"measurement": "Evaluation (ulceration of the gastric epithelium)", "setting": "[1]; [5]", "value": 3.3}, {"measurement": "Increase (of ulceration evaluation over control)", "setting": "[1]; [6]", "value": 0.3}, {"measurement": "Relative strength, Randall-Selitto test", "setting": "[2]", "value": 1.37}, {"measurement": "Relative strength, Tail pressure test", "setting": "[3]", "value": 0.56}]}
{"smiles": "Cc1c(Cl)cccc1Nc1ncccc1C(=O)OC1OC(=O)c2ccccc21", "note": "(stereo not shown) [Phthalydil 2(3'-chloro-2'-methylanilino)pyridine 3-carboxylate]", "values": [{"measurement": "Evaluation (ulceration of the gastric epithelium)", "setting": "[1]; [5]", "value": 3.6}, {"measurement": "Increase (of ulceration evaluation over control)", "setting": "[1]; [6]", "value": 0.6}]}
{"smiles": "O=C(O)c1cccnc1Nc1cccc(C(F)(F)F)c1", "note": "[2-(3'-trifluoromethyl-anilino)-3-pyridinecarboxylic acid, reference compound]", "values": [{"measurement": "Evaluation (ulceration of the gastric epithelium)", "setting": "[1]; [5]", "value": 3.9}, {"measurement": "Increase (of ulceration evaluation over control)", "setting": "[1]; [6]", "value": 0.9}]}
{"smiles": "CCCCC1C(=O)N(c2ccccc2)N(c2ccccc2)C1=O", "note": "[Phenylbutazone, reference compound]", "values": [{"measurement": "Evaluation (ulceration of the gastric epithelium)", "setting": "[1]; rat, in vivo, po", "value": 5.5}, {"measurement": "Increase (of ulceration evaluation over control)", "setting": "[1]; rat, in vivo, po", "value": 2.5}]}
{"smiles": "O=C(OC1OC(=O)c2ccccc21)c1ccccc1Nc1cccc(C(F)(F)F)c1", "note": "(stereo not shown) [Phthalidyl N-(3'-trifluorotolyl) anthranylate]", "values": [{"measurement": "Evaluation (ulceration of the gastric epithelium)", "setting": "[1]; [5]", "value": 3.5}, {"measurement": "Increase (of ulceration evaluation over control)", "setting": "[1]; [6]", "value": 0.5}, {"measurement": "Relative strength, Randall-Selitto test", "setting": "[2]", "value": 10.6}, {"measurement": "Relative strength, Tail pressure test", "setting": "[3]", "value": 0.74}]}
{"smiles": "CC(C)(C)C(=O)OCOC(=O)c1cccnc1Nc1cccc(C(F)(F)F)c1", "note": "[Pivaloyloxymethyl 2-(3'-trifluoromethylanilino)-pyridine-3-carboxylate]", "values": [{"measurement": "Evaluation (ulceration of the gastric epithelium)", "setting": "[1]; [5]", "value": 3.2}, {"measurement": "Increase (of ulceration evaluation over control)", "setting": "[1]; [6]", "value": 0.2}, {"measurement": "anti-inflammatory activity, in words", "setting": "[4]", "value": "act as anti-inflammatory agent more than as antinociceptive agents"}]}
